Assay results from patent publication US20060166941A1, “Treatment and/or prevention of non-viral epithelial damage” (Epistem Limited, priority 2003, published 2006).
Structures can show the parent of a compound that is named as a salt.

How the values were obtained:
digestive epithelia = experiment: Diarrhoea prevention assay, 14 Gy X-ray partial body radiation; assay type: in vivo, mice; conditions: for incidence of diarrhoea (perianal soilage): 5 mice
From the text: Diarrhoea Prevention Assay The ability of foscarnet (phosphonoformic acid trisodium salt hexahydrate) to prevent diarrhoea following radiological injury to digestive epithelia was investigated. The model of radiological insult used was treatment with 14 Gy X-ray partial body radiation (head and thorax lead shielded) at a dose rate of 0.7 Gy/minute. Such radiation treatment provides a model of radiotherapy administered to patients undergoing treatment for cancer. Three experimental groups, each of five mice, were established as set out below: Group 1: Received intra-peritoneal injection, containing 50 mg foscarnet/kilogram bodyweight, in sterile water, one hour prior to radiation treatment. Received one further identical injection on each of the next five days following radiation treatment. Group 2: Received intra-peritoneal injection, containing 100 mg foscarnet/kilogram bodyweight, in sterile water, one hour prior to radiation treatment. Received one further identical injection on each of the next five days following radiation treatment. Group 3: Vehicle control. […] Received intra-peritoneal injection, of sterile water, one hour prior to radiation treatment. Received one further identical injection on each of the next five days following radiation treatment. The incidences of both diarrhoea (measured by assessing perianal soilage twice daily) and morbidity among experimental animals were measured over the course of the seven days following radiation treatment.

intestinal crypt cells = experiment: Epithelial cell kinetic evaluation following oral administration (BrdUrd labelling, tolerability); assay type: in vivo; conditions: 500 mg/kg oral gavage once a day for 4 days
Method: Epithelial Cell Kinetic Evaluation Following Oral Administration of Foscarnet Phosphonoformic Acid Trisodium Salt Hexahydrate).
Intestinal epithelial cell stimulation following an oral application of foscarnet (phosphonoformic acid trisodium salt hexahydrate) was illustrated by the following experiment.
Two experimental groups, each of three mice, were established as set out below:
Group 1: Received oral gavage, containing 500 mg foscarnet/kilogram bodyweight, in sterile water, once a day for 4 days. On the fifth day the animals received a pulse of 10 mg Bromodeoxyuridine (BrdUrd) and 40 minutes laster were killed and small intestine and kidneys harvested for analysis.
Group 2: Received oral gavage of sterile water, once a day for 4 days On the fifth day the animals received a pulse of 10 mg Bromodeoxyuridine and 40 minutes laster were killed and small intestine and kidneys harvested for analysis.
Slides were immunohistochemically labelled for BrdUrd and counterstained with thionin to assess intestinal epithelial cell kinetic changes with oral administration of foscarnet. To assess epithelial cell kinetic changes, 50 small intestinal crypts per animal were quantified on a cell positional basis for the number of positively labelled S-phase cells at each cell position in the crypt. Quantification starts at the bottom of the crypt (cell position 1) and continues up one side of the crypt assessing each cell in turn to the crypt villus junction.

oral mucosa = experiment: In vivo protection of oral mucosa following chemotherapy (5FU) damage, ventral tongue cellularity; set-up: species or system mice; conditions: 50 mg/kg intra-peritoneal 1 hr prior to 5FU (400 mg/kg x 2) and daily for three days; versus vehicle
Method: In Vivo Protection of Oral Mucosa Following Chemotherapy Damage. The ability of foscarnet (phosphonoformic acid trisodium salt hexahydrate) to prevent cytotoxic damage to oral mucosa was illustrated by the following experiment. The model of cytotoxic insult used was treatment with 2 doses of 400 mg/kilogram bodyweight 5-Flurouracil 6 hours apart. Such cytotoxic treatment provides a model of chemotherapy administered to patients undergoing treatment for cancer. Experimental groups, each of five mice, were established as set out below: Group 2: Received intra-peritoneal injection, containing 50 mg foscarnet/kilogram bodyweight, in sterile water, one hour prior to the first cytotoxic treatment (400 mg 5-Flurouracil/kilogram bodyweight). Received one further identical injection of foscarnet (50 mg/kilogram bodyweight) on each of the three days following cytotoxic treatment. […] Tissue sections were stained with thionin and using a Zeiss AxioHOME the number of cells were assessed in both the basal and suprabasal layers of the ventral surface of the tongue. The area from the basal layer to the stratum corneum stratum granulosum interface was measured along with the length of the basal layer. […] From these measurements the damage that the 5FU had caused to the tongue could be assessed as overall cellularity of the tongue or the total number of cells/unit area (mm^2). […]

For `O=C(O)P(=O)(O)O` [foscarnet, phosphonoformic acid trisodium salt hexahydrate], the “protection against the deleterious effects of radiation treatment” value (digestive epithelia; 50 mg per kilogram bodyweight, 14 Gy partial body) was “protects completely”, the “incidence of diarrhoea (perianal soilage)” value (digestive epithelia; 50 mg/kg intra-peritoneal 1 hr before 14 Gy and daily for 5 days, Day 3) was “No” and the “incidence of diarrhoea (perianal soilage)” value (digestive epithelia; 50 mg/kg intra-peritoneal 1 hr before 14 Gy and daily for 5 days, Day 4) was “No diarrhoea”. For the same compound, the “incidence of diarrhoea (perianal soilage)” value (digestive epithelia; 50 mg/kg intra-peritoneal 1 hr before 14 Gy and daily for 5 days, Day 5) was “No diarrhoea”, the “incidence of diarrhoea (perianal soilage)” value (digestive epithelia; 50 mg/kg intra-peritoneal 1 hr before 14 Gy and daily for 5 days, Day 6) was “No diarrhoea” and the “incidence of diarrhoea (perianal soilage)” value (digestive epithelia; 50 mg/kg intra-peritoneal 1 hr before 14 Gy and daily for 5 days, Day 7) was “No diarrhoea”. The “incidence of diarrhoea or associated morbidity compared to vehicle controls” value (digestive epithelia; 100 mg per kilogram bodyweight, 14 Gy partial body) was “reduced incidence of diarrhoea or associated morbidity”, the “incidence of diarrhoea (perianal soilage)” value (digestive epithelia; 100 mg/kg intra-peritoneal 1 hr before 14 Gy and daily for 5 days, Day 3) was “No” and the “incidence of diarrhoea (perianal soilage)” value (digestive epithelia; 100 mg/kg intra-peritoneal 1 hr before 14 Gy and daily for 5 days, Day 4) was “No diarrhoea”. The “incidence of diarrhoea (perianal soilage)” value (digestive epithelia; 100 mg/kg intra-peritoneal 1 hr before 14 Gy and daily for 5 days, Day 5) was “No diarrhoea”, the “incidence of diarrhoea (perianal soilage)” value (digestive epithelia; 100 mg/kg intra-peritoneal 1 hr before 14 Gy and daily for 5 days, Day 6) was 2 mice had and the “incidence of diarrhoea (perianal soilage)” value (digestive epithelia; 100 mg/kg intra-peritoneal 1 hr before 14 Gy and daily for 5 days, Day 7) was 1 mouse had diarrhoea. For the same compound, the “deaths or signs of illness” value (intestinal crypt cells) was “no deaths or signs of illness”, the “tolerability of relatively high oral doses” value (intestinal crypt cells) was “tolerated without notable toxicity” and the “kidney damage judged by histological sectioning” value (intestinal crypt cells; end of treatment period) was “neither of the groups showed overt signs of kidney damage”. The “BrdUrd labelling index in intestinal crypt cells (FIG. 5)” value (intestinal crypt cells; versus vehicle control) was “stimulating effect on intestinal crypt cells” and the “numbers of cells per unit area in the epithelium covering the ventral surface of the tongue (FIG. 4)” value (oral mucosa) was “extra cells per unit area gained”.
